Results on 26 molecules are retold here after patent US10953012B2, “Heterocyclic compounds for the inhibition of pask” (BioEnergenix LLC, priority 2011, dated 2021).

One experiment addresses hPASK (kinase domain) (Homo sapiens (Human), UniProt Q96RG2). Briefly: PAS Kinase Luminescence Assay (Kinase-Glo), kinase domain. Format: biochemical. The method, then:
(§1) PAS Kinase Luminescence Assay
(§2) One assay for purified hPASK activity utilizes the Kinase-Glo Luminescent Kinase Assay (Promega), which quantifies the amount of ATP remaining in solution following kinase reaction. The assay is carried out in a 96-well plate format and is performed by adding a volume of Kinase-Glo Reagent (Promega, catalog #V3771) equal to the volume of solution in the well of a completed kinase reaction. Kinase-Glo reagent contains Luciferase and its substrate. After addition to a kinase reaction it allows to measure luminescence. The amount of ATP left in solution at the time of Kinase-Glo Plus addition is directly proportional to the luminescence that is measured in each well, and inversely correlated with kinase activity.
(§3) Purified hPASK from insect cells (0.02 μg) is added to a 50 μL reaction mix containing 40 mM HEPES (pH 7.0), 100 mM KCl, 5 mM MgCl2, 1 mM DTT and 1 μg of MBP protein. Inhibitory compounds are then added and the mixture is incubated for 10 min at 25° C. before adding 5 μL of ATP (at desired concentration). The reaction is allowed to proceed at 25° C. for 1 hour before adding 50 μL of Kinase-Glo reagent. The luminescence is measured as soon as 10 minutes after Kinase-Glo reagent is added.
(§4) Results are shown below in Table 1, where NT means not tested.

For another experiment, the target named is hPASK (full length) (Homo sapiens (Human), UniProt Q96RG2). Put plainly: PAS Kinase Luminescence Assay (Kinase-Glo), full length. The class given is biochemical. The method, then: as §1, §2, §3, §4
The target in another experiment is CK2a2 (Homo sapiens (Human), UniProt P19784). Briefly: Biochemical Assay for CK2 Activity. Conditions: 33P-ATP radiochemical assay; read-out: IC50 CK2 a2. Summed up:
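GST-tagged full-length human CK2a2 from insect cells (1.2 nM) with 20 μM RRRDDDSDDD peptide, in pH 7.5 HEPES buffer with MgCl2, DTT and 1% DMSO. Reactions started with ³³P-ATP were run for 120 min at room temperature. Substrate phosphorylation was measured by P81 phosphocellulose filter binding and scintillation counting.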

The target in the next experiment is PASK (UniProt #Q96RG2; residues 879-1323) (Homo sapiens (Human), UniProt Q96RG2). Briefly: PASK ATP Radiochemical Assay. The class given is biochemical. The conditions noted are these: 33P-ATP radiochemical assay; read-out: IC50 Kinase Domain. The gist of the method: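 Radiometric kinase assay: GST-tagged PASK (5 nM final) from insect cells with Myelin Basic Protein (20 μM) in HEPES pH 7.5 buffer, 1% DMSO; reaction started with ^33P-ATP, 120 min at room temperature. Substrate phosphorylation captured on P81 paper and read by scintillation counting.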
PASK, sequence (Q96RG2 879-1323): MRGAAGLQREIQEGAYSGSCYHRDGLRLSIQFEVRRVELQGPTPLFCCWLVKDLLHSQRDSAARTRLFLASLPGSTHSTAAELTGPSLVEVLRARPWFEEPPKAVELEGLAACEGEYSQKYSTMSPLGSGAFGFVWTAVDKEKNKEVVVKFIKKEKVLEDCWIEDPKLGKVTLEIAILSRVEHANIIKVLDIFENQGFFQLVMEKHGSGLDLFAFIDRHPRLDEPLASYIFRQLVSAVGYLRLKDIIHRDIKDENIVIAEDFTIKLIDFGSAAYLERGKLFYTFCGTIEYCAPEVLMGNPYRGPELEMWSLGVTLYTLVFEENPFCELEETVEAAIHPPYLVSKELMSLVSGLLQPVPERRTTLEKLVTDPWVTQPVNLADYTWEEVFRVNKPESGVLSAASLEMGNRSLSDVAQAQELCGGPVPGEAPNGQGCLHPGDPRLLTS

hPASK (kinase domain), sequence (Q96RG2 999-1251): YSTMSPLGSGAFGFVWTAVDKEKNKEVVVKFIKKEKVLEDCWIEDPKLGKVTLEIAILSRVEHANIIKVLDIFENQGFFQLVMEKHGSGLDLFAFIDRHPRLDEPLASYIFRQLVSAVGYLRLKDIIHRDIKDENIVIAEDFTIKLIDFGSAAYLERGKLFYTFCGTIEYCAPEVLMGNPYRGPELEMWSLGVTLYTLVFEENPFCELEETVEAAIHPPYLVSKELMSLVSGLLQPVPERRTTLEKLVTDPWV
CK2a2, sequence (P19784 whole entry): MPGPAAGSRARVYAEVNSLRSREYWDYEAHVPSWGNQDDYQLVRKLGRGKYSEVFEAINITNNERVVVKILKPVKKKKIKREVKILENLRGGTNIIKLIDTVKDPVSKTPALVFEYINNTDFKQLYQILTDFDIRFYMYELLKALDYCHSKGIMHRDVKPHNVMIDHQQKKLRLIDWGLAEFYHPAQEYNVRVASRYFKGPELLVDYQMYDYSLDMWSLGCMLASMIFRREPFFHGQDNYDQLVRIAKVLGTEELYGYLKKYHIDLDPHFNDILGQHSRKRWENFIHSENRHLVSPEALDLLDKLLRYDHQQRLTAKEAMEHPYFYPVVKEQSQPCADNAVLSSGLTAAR
hPASK (full length), sequence (Q96RG2 whole entry): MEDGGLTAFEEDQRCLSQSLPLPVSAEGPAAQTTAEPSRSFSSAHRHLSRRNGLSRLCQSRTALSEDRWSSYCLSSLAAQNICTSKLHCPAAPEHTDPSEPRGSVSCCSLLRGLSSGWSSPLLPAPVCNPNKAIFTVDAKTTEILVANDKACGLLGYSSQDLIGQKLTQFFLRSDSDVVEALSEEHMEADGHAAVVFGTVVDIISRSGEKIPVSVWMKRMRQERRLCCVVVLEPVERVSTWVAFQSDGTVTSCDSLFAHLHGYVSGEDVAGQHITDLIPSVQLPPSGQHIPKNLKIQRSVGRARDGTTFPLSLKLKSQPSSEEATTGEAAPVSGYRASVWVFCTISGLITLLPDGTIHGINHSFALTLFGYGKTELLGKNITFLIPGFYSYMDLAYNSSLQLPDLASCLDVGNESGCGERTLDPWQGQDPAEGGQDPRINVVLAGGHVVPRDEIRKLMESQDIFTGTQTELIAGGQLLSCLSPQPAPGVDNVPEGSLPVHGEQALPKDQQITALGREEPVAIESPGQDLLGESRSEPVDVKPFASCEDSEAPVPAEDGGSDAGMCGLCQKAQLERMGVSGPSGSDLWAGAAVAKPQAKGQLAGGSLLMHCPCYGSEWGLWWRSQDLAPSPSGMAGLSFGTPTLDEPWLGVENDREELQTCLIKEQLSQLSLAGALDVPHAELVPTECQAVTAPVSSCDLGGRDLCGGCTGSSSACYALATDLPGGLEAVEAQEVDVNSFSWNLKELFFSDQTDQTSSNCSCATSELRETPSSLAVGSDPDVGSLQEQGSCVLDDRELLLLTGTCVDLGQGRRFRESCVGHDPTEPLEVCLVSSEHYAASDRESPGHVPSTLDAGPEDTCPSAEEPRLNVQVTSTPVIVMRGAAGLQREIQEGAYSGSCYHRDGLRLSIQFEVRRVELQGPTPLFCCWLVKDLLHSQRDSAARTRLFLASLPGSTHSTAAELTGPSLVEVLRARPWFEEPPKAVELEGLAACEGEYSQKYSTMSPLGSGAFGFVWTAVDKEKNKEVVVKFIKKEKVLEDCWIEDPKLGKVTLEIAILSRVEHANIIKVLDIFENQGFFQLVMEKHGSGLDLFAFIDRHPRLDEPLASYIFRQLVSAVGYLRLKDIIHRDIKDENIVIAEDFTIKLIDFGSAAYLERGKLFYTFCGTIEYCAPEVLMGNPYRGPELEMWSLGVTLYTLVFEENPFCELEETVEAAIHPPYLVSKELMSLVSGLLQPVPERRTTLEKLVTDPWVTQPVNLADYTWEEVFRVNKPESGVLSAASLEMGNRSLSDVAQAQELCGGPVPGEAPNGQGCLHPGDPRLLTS

Regarding `Cc1nn2c(=O)cc(-c3ccc([N+](=O)[O-])cc3)[nH]c2c1-c1ccc(Cl)cc1` [Example 1, 3-(4-Chloro-phenyl)-2-methyl-5-(4-nitro-phenyl)-4H-pyrazolo[1,5-a]pyrimidin-7-one], the IC50 against hPASK (kinase domain) and against hPASK (full length) was at most 10 µM in each case. For `Cc1cc(=O)n2nc(-c3ccc(Cl)cc3)cc2[nH]1` [Example 2, 2-(4-Chloro-phenyl)-5-methyl-4H-pyrazolo[1,5-a]pyrimidin-7-one], the IC50 was at least 10 µM against hPASK (kinase domain) and at most 10 µM on hPASK (full length). The corresponding values for `Cc1[nH]c2c(-c3ccc(Cl)cc3)cnn2c(=O)c1Cc1ccccc1` [Example 3, 6-Benzyl-3-(4-chloro-phenyl)-5-methyl-4H-pyrazolo[1,5-a]pyrimidin-7-one] are at most 10 µM and at most 10 µM. `Cc1cc(=O)n2nc(-c3cccc(Br)c3)cc2[nH]1` [Example 4, 2-(3-Bromo-phenyl)-5-methyl-4H-pyrazolo[1,5-a]pyrimidin-7-one] registered a half-inhibitory concentration (IC50) against hPASK (kinase domain) of at most 10 µM. As for `COc1ccc(-c2c(Cc3ccccc3)nn3c(=O)cc(-c4ccccc4)[nH]c23)cc1` [Example 5, 2-Benzyl-3-(4-methoxy-phenyl)-5-phenyl-4H-pyrazolo[1,5-a]pyrimidin-7-one], the IC50 against hPASK (kinase domain) is at most 10 µM; on hPASK (full length), at least 10 µM. As to `COc1ccc(-c2c(C)nn3c(=O)cc(-c4ccccc4)[nH]c23)cc1` [Example 6, 3-(4-Methoxy-phenyl)-2-methyl-5-phenyl-4H-pyrazolo[1,5-a]pyrimidin-7-one], the half-inhibitory concentration (IC50) was at most 10 µM against hPASK (kinase domain) and at least 10 µM against hPASK (full length). Take `O=c1cc(-c2ccccc2)[nH]c2c(-c3ccccc3)c(Cc3ccccc3)nn12` [Example 7, 2-Benzyl-3,5-diphenyl-4H-pyrazolo[1,5-a]pyrimidin-7-one]: the IC50 was at most 10 µM against hPASK (kinase domain) and at least 10 µM at hPASK (full length). The like results for `Cc1nn2c(=O)cc(-c3ccccc3)[nH]c2c1-c1ccc(Cl)cc1` [Example 8, 3-(4-Chloro-phenyl)-2-methyl-5-phenyl-4H-pyrazolo[1,5-a]pyrimidin-7-one] were, in that order, at most 10 µM and at most 10 µM. The like results for `O=c1cc(-c2ccc([N+](=O)[O-])cc2)[nH]c2c(-c3ccc(Cl)cc3)c(Cc3ccccc3)nn12` [Example 9, 2-Benzyl-3-(4-chloro-phenyl)-5-(4-nitro-phenyl)-4H-pyrazolo[1,5-a]pyrimidin-7-one] were, in that order, at most 10 µM and at most 10 µM. The corresponding values for `O=c1cc(-c2ccccc2)[nH]c2c(-c3ccc(Cl)cc3)c(Cc3ccccc3)nn12` [Example 10, 2-Benzyl-3-(4-chloro-phenyl)-5-phenyl-4H-pyrazolo[1,5-a]pyrimidin-7-one] are at least 10 µM and at least 10 µM.

In the case of `O=c1cc(-c2ccccc2)[nH]c2c(-c3cccc4ccccc34)c(Cc3ccccc3)nn12` [Example 11, 2-Benzyl-3-naphthalen-1-yl-5-phenyl-4H-pyrazolo[1,5-a]pyrimidin-7-one], the IC50 at hPASK (kinase domain) and at hPASK (full length) was at least 10 µM each time. For the molecule `COc1ccc(-c2c(C)nn3c(=O)cc(-c4ccccc4)[nH]c23)cc1` [Example 20, 3-(4-Methoxy-phenyl)-2-methyl-5-phenyl-4H-pyrazolo[1,5-a]pyrimidin-7-one], the concentration for half-maximal inhibition (IC50) against hPASK (kinase domain) was at least 10 µM.

Turning to `O=c1cc(-c2ccc3c(c2)OCCO3)[nH]c2c(-c3ccccc3)cnn12` [Example 40, 5-(2,3-Dihydrobenzo[b][1,4]dioxin-6-yl)-3-phenylpyrazolo[1,5-a]pyrimidin-7(4H)-one], the IC50 on CK2a2 and at hPASK (kinase domain) was at most 10 µM in each case. `Cc1nn2c(=O)cc(-c3ccc4c(c3)OCCO4)[nH]c2c1-c1ccccc1` [Example 41, 5-(2,3-Dihydrobenzo[b][1,4]dioxin-6-yl)-2-methyl-3-phenylpyrazolo[1,5-a]pyrimidin-7(4H)-one] showed an IC50 at hPASK (kinase domain) of at most 10 µM. In the case of `O=c1cc(-c2ccc3c(c2)OCO3)[nH]c2c(-c3ccccc3)cnn12` [Example 42, 5-(Benzo[d][1,3]dioxol-5-yl)-3-phenylpyrazolo[1,5-a]pyrimidin-7(4H)-one], on hPASK (kinase domain), the concentration for half-maximal inhibition (IC50) was at most 10 µM. With `Cc1nn2c(=O)cc(-c3ccc4c(c3)OCO4)[nH]c2c1-c1ccccc1` [Example 43, 5-(Benzo[d][1,3]dioxol-5-yl)-2-methyl-3-phenylpyrazolo[1,5-a]pyrimidin-7(4H)-one], the IC50 on CK2a2 and on hPASK (kinase domain) was at most 10 µM throughout. On to `O=c1cc(-c2ccc3c(c2)OCCO3)[nH]c2c(-c3ccccn3)cnn12` [Example 44, 5-(2,3-Dihydrobenzo[b][1,4]dioxin-6-yl)-3-(pyridin-2-yl)pyrazolo[1,5-a]pyrimidin-7(4H)-one], for which the IC50 at CK2a2 and at hPASK (kinase domain) was at most 10 µM each time. Turning to `O=c1cc(-c2ccc3c(c2)OCCO3)[nH]c2c(-c3cccnc3)cnn12` [Example 45, 5-(2,3-Dihydrobenzo[b][1,4]dioxin-6-yl)-3-(pyridin-3-yl)pyrazolo[1,5-a]pyrimidin-7(4H)-one], the IC50 on CK2a2 and at hPASK (kinase domain) was at most 10 µM throughout. `O=c1cc(-c2ccc3c(c2)OCO3)[nH]c2c(-c3cccnc3)cnn12` [Example 46, 5-(Benzo[d][1,3]dioxol-5-yl)-3-(pyridin-3-yl)pyrazolo[1,5-a]pyrimidin-7(4H)-one] returned an IC50 against hPASK (kinase domain) of at most 10 µM. For `Cc1nn2c(=O)cc(-c3ccc4c(c3)OCO4)[nH]c2c1-c1ccccn1` [Example 48, 5-(Benzo[d][1,3]dioxol-5-yl)-2-methyl-3-(pyridin-2-yl)pyrazolo[1,5-a]pyrimidin-7(4H)-one], the concentration for half-maximal inhibition (IC50) on CK2a2 and at hPASK (kinase domain) was at most 10 µM each time. Molecule `Cc1nn2c(=O)cc(-c3ccc4c(c3)OCO4)[nH]c2c1-c1cccnc1` [Example 49, 5-(Benzo[d][1,3]dioxol-5-yl)-2-methyl-3-(pyridin-3-yl)pyrazolo[1,5-a]pyrimidin-7(4H)-one] registered an IC50 against hPASK (kinase domain) of at most 10 µM.

As for `Cc1nn2c(=O)cc(-c3ccc4c(c3)OCCO4)[nH]c2c1-c1ccccn1` [Example 50, 5-(2,3-Dihydrobenzo[b][1,4]dioxin-6-yl)-2-methyl-3-(pyridin-2-yl)pyrazolo[1,5-a]pyrimidin-7(4H)-one], the half-maximal inhibitory concentration (IC50) on CK2a2 and at hPASK (kinase domain) was at most 10 µM throughout. For `Cc1nn2c(=O)cc(-c3ccc4c(c3)OCCO4)[nH]c2c1-c1cccnc1` [Example 51, 5-(2,3-Dihydrobenzo[b][1,4]dioxin-6-yl)-2-methyl-3-(pyridin-3-yl)pyrazolo[1,5-a]pyrimidin-7(4H)-one], the IC50 on CK2a2 and against hPASK (kinase domain) was at most 10 µM throughout. On hPASK (kinase domain), `O=c1cc(-c2ccccc2)[nH]c2c(-c3ccccn3)cnn12` [Example 52, 5-Phenyl-3-(pyridin-2-yl)pyrazolo[1,5-a]pyrimidin-7(4H)-one] showed an IC50 of at most 10 µM. For `Cc1nn2c(=O)cc(-c3ccc4cc[nH]c4c3)[nH]c2c1Cc1ccccc1` [Example 74, 3-Benzyl-5-(1H-indol-6-yl)-2-methylpyrazolo[1,5-a]pyrimidin-7(4H)-one], the figures for the IC50 on CK2a2, against hPASK (kinase domain) and at PASK were at least 10 µM, at most 10 µM and at most 10 µM, respectively.

On to `O=c1cc(-c2cccnc2)[nH]c2c(-c3ccc(F)cc3)cnn12` [Example 78, 3-(4-Fluorophenyl)-5-(pyridin-3-yl)pyrazolo[1,5-a]pyrimidin-7(4H)-one], for which the IC50 at hPASK (kinase domain) is at most 10 µM.
